Laboratory results from PubChem BioAssay AID192 (DTP/NCI, 2004).
Values joined by “and” are separate entries in the source; they are usually repeats but may differ in a detail not shown here. Equal entries are not always repeated. Toxic doses and inconclusive results are not listed.

Test system: BDF1 mice, B16 melanoma ip, median survival T/C
Assay: NCI In Vivo Anticancer Drug Screen. Data for tumor model B16 Melanoma (intraperitoneal) in B6D2F1 (BDF1) mice
Settings: endpoint: median survival time, higher = longer survival
Procedure: The antitumor activity of compounds was measured in mice bearing transplantable tumors. Survival or tumor size were measured and the results are expressed as the measurement made in the treated group (T) divided by the measurement made in the vehicle treated control group (C). The tumor model used in this assay is B16 Melanoma (intraperitoneal) in B6D2F1 (BDF1) mice

[1] = dose: 12.5 mg/kg/injection, schedule: Q01DX009 (ip), vehicle: saline with Tween-80
[2] = dose: 25.0 mg/kg/injection, schedule: Q01DX009 (ip), vehicle: saline with Tween-80
[3] = dose: 50.0 mg/kg/injection, schedule: Q01DX009 (ip), vehicle: saline with Tween-80
[4] = dose: 100.0 mg/kg/injection, schedule: Q01DX009 (ip), vehicle: saline with Tween-80
[5] = dose: 25.0 mg/kg/injection, schedule: Q01DX009 (ip), vehicle: Klucel (hydroxypropylcellulose) (HPC)
[6] = dose: 6.25 mg/kg/injection, schedule: Q01DX009 (ip), vehicle: saline with Tween-80

## Cc1c2ccnc(C(N)=O)c2c(C)c2c1[nH]c1ccccc12
dose: 100.0 mg/kg/injection, schedule: Q04DX003 (ip), vehicle: distilled water + Tween-80
  T/C: 100 % of control
dose: 200.0 mg/kg/injection, schedule: Q04DX003 (ip), vehicle: distilled water + Tween-80
  T/C: 114 % of control

## CCNC(Cc1ccccc1)C1CCCO1 (centres undefined)
dose: 6.25 mg/kg/injection, schedule: Q01DX009 (ip), vehicle: saline
  T/C: 122 % of control
dose: 12.5 mg/kg/injection, schedule: Q01DX009 (ip), vehicle: saline
  T/C: 120 % of control
dose: 25.0 mg/kg/injection, schedule: Q01DX009 (ip), vehicle: saline
  T/C: 115 % of control
dose: 50.0 mg/kg/injection, schedule: Q01DX009 (ip), vehicle: saline
  T/C: 115 % of control
dose: 100.0 mg/kg/injection, schedule: Q01DX009 (ip), vehicle: saline
  T/C: 100 % of control

## O=[N+]([O-])c1ccc(Sc2ccncn2)c([N+](=O)[O-])c1
[1]
  T/C: 100 % of control and 109 % of control
[2]
  T/C: 94 % of control and 101 % of control
[3]
  T/C: 95 % of control and 106 % of control
[4]
  T/C: 108 % of control

## C/C(=N\NC(N)=O)C1=C(O)C(C(C)C)NC1=O (centres undefined)
[3]
  T/C: 91 % of control
[4]
  T/C: 86 % of control
dose: 200.0 mg/kg/injection, schedule: Q01DX009 (ip), vehicle: saline with Tween-80
  T/C: 91 % of control
dose: 400.0 mg/kg/injection, schedule: Q01DX009 (ip), vehicle: saline with Tween-80
  T/C: 91 % of control

## O=C(N=C1C=CC(=NC(=O)OCc2ccccc2)C=C1)OCc1ccccc1
dose: 75.0 mg/kg/injection, schedule: Q01DX009 (ip), vehicle: Klucel (hydroxypropylcellulose) (HPC)
  T/C: 98 % of control
dose: 150.0 mg/kg/injection, schedule: Q01DX009 (ip), vehicle: Klucel (hydroxypropylcellulose) (HPC)
  T/C: 92 % of control
dose: 300.0 mg/kg/injection, schedule: Q01DX009 (ip), vehicle: Klucel (hydroxypropylcellulose) (HPC)
  T/C: 91 % of control

## Cc1nonc1-c1ccc2c(c1)OCO2
[5]
  T/C: 98 % of control
dose: 50.0 mg/kg/injection, schedule: Q01DX009 (ip), vehicle: Klucel (hydroxypropylcellulose) (HPC)
  T/C: 93 % of control
dose: 100.0 mg/kg/injection, schedule: Q01DX009 (ip), vehicle: Klucel (hydroxypropylcellulose) (HPC)
  T/C: 91 % of control
dose: 200.0 mg/kg/injection, schedule: Q01DX009 (ip), vehicle: Klucel (hydroxypropylcellulose) (HPC)
  T/C: 99 % of control

## C=CCNC(=O)c1ccccc1SC(C)=O
dose: 100.0 mg/kg/injection, schedule: Q01DX009 (ip), vehicle: saline + Tween-80 + alcohol
  T/C: 101 % of control
dose: 200.0 mg/kg/injection, schedule: Q01DX009 (ip), vehicle: saline + Tween-80 + alcohol
  T/C: 116 % of control
dose: 400.0 mg/kg/injection, schedule: Q01DX009 (ip), vehicle: saline + Tween-80 + alcohol
  T/C: 124 % of control

## CN(C1CCCCC1)C1CCCCC1
dose: 6.25 mg/kg/injection, schedule: Q01DX009 (ip), vehicle: Klucel (hydroxypropylcellulose) (HPC)
  T/C: 92 % of control
dose: 12.5 mg/kg/injection, schedule: Q01DX009 (ip), vehicle: Klucel (hydroxypropylcellulose) (HPC)
  T/C: 92 % of control
[5]
  T/C: 94 % of control

## CCC1(CC)OC2=C(CC(C#N)(C#N)C(C#N)(C#N)C2)O1
dose: 2.5 mg/kg/injection, schedule: Q04DX003 (ip), vehicle: Klucel (hydroxypropylcellulose) (HPC)
  T/C: 96 % of control
dose: 3.12 mg/kg/injection, schedule: Q04DX003 (ip), vehicle: Klucel (hydroxypropylcellulose) (HPC)
  T/C: 100 % of control
dose: 4.0 mg/kg/injection, schedule: Q04DX003 (ip), vehicle: Klucel (hydroxypropylcellulose) (HPC)
  T/C: 98 % of control
dose: 9.5 mg/kg/injection, schedule: Q04DX003 (ip), vehicle: Klucel (hydroxypropylcellulose) (HPC)
  T/C: 96 % of control
dose: 12.5 mg/kg/injection, schedule: Q04DX003 (ip), vehicle: Klucel (hydroxypropylcellulose) (HPC)
  T/C: 88 % of control

## Nc1ccn(C2OC(COC(=O)C34CC5CC(CC(C5)C3)C4)C(O)C2O)c(=O)n1 (centres undefined)
[6]
  T/C: 115 % of control
[1]
  T/C: 153 % of control
[2]
  T/C: 155 % of control and 191 % of control

## COC(=O)C1(C(=O)OC)CCCCC1=O
dose: 100.0 mg/kg/injection, schedule: Q04DX003 (ip), vehicle: Klucel (hydroxypropylcellulose) (HPC)
  T/C: 93 % of control
dose: 200.0 mg/kg/injection, schedule: Q04DX003 (ip), vehicle: Klucel (hydroxypropylcellulose) (HPC)
  T/C: 94 % of control

## CCCCC#CCOCC(O)CCl (centres undefined)
dose: 3.13 mg/kg/injection, schedule: Q01DX009 (ip), vehicle: saline with Tween-80
  T/C: 118 % of control
[6]
  T/C: 114 % of control
[2]
  T/C: 101 % of control

## CCCCCCC#CC(=O)OC
[1]
  T/C: 110 % of control
[2]
  T/C: 93 % of control
[3]
  T/C: 97 % of control and 100 % of control
